Test results as given in PMC12238850, “Molecular determinants for recognition of serotonylated chromatin” (Nucleic Acids Research, 2025).
Read-outs that look alike come from different tables or passages of the source.

Molecular target: T1, Taf3-PHD (residues 857–924) (Mus musculus, UniProt Q5HZG4)
T1 construct: PHD finger of Taf3 (residues 857–924) in NMR buffer; GST (N, cleaved yes); made in house; host or cells: E. coli BL21(DE3), M9 minimal medium (13C/15N)
T1 sequence (Q5HZG4 857-924): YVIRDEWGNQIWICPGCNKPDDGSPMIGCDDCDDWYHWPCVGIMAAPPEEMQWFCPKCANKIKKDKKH
Test: NMR titration line shape analysis (TITAN), wild-type Taf3-PHD
Type: binding
Method: The ^13C- and ^15N-labelled Taf3-PHD NMR samples were purified as described above, with minor differences. A single colony of freshly transformed BL21(DE3) E. coli was grown in a synthetic M9 minimal medium (6.0 g/l Na2HPO4·2H2O, 3.0 g/l KH2PO4, 0.5 g/l NaCl, 25 mg/l MgSO4, 290 μg/l CaCl2, 1 μg/l FeSO4·7H2O, 270 μg/l ZnCl2, and 5 mg/l thiamine) containing 2.0 g/l ^13C-glucose as the only carbon source and 0.5 g/l ^15NH4Cl as the sole nitrogen source. Protein expression, lysis, and loading to Glutathione Sepharose™ column were performed as described above. The GST-tag was removed through on-column thrombin digestion by loading excess thrombin (SERVA) in wash buffer followed by overnight digestion at 4°C. The cleaved PHD moiety with a […] N-terminal extension (Gly–Ser–His–Met–Ala–Met–Ala) remaining from the thrombin cleavage site was collected from the flow-through and further purified in a Mono Q™ 10/100 GL as before and subsequently loaded to a Superdex-75 HiLoad 16/600 gel filtration column in NMR buffer (20 mM KPi, pH 7.0, 150 mM KCl, 10 μM ZnCl2) (Supplementary Fig. S1).
All data were recorded at 298 K on a Bruker Avance III HD 900 MHz spectrometer equipped with a cryoprobe, unless noted otherwise. Sample for assignment verification contained 0.3 mM ^13C- and ^15N-labelled PHD finger of Taf3 (residues 857–924) in NMR buffer (20 mM KPi, pH 7.0, 150 mM KCl, 10 μM ZnCl2, 0.01% NaN3, 10% D2O) in a 5-mm NMR tube. Samples for peptide interaction studies contained 0.19 mM ^13C- and ^15N-labelled PHD in NMR buffer in 3-mm NMR tubes. Lyophilized peptides were dissolved in NMR buffer including 1 mM sodium 3-(trimethylsilyl)tetradeuteriopropanionate (TSP) into 20 mM stock solutions. Upon dilution to 1 mM, all peptide solutions were at pH 7.0 in NMR buffer. Peptide concentrations were determined by comparing the integral of the Thr methyl signal (from T3, T6, and T11, total nine protons) to that of TSP using a quantitative 1D experiment (recycle delay 60 s) recorded at a Bruker Avance III 600 MHz spectrometer. Saturated complexes with H3K4me1/H3K4me2/H3K4me3 peptides with and without H3Q5ser were made by adding peptide to a 0.7 mM final concentration (3.6 equiv.). […] Additional samples were prepared using 30%, 50%, 80%, and 160% equiv. of peptide. All spectra were recorded and processed using Bruker Topspin and analysed using NMR-FAM Sparky and Poky.
For the H3K4me2 complexes, the resonance of G879 was excluded due to overlap and that of K875 was included. Spectra were processed using NMRPipe using exponential line broadening of 10/15 Hz in the direct/indirect dimension of the free induction decay before Fourier transform. Data were fit against a 1:1 binding model that also optimizes the ligand concentration to compensate for concentration errors. Fitting assumed an HSQC experiment using 1.2 ms for the first zz-filter delays and an additional 0.6 ms evolution at the start and end of t1 that accommodated the echo/anti-echo gradient. The average koff value and standard error from a bootstrap analysis based on 100 replicas are reported. The 95% confidence limits were estimated using a grid search fixing koff allowing for an ∼3% increase in the final residuals as based on the F-statistic given the degrees of freedom. For each koff value, the KD for the H3K4me3 peptide was restrained to fall within 100 and 400 nM to enforce compatibility to previous reported affinity to avoid unrealistically high fitted KD values at higher koff values. Of note, the quality of the fit at the confidence limit edges is visibly worse than the best fit, particularly for the high koff side. For the H3K4me3Q5ser peptide, no restraint on KD was necessary. For the H3K4me2 peptides, the KD was restrained to 5 μM maximum. Without these upper bounds for KD, slightly wider confidence limits for koff are found.

| SMILES | koff (NMR line shape fit (TITAN), 298 K, 20 mM KPi, pH 7.0, 150 mM KCl, 1:1 model, average ± standard error from bootstrap, 100 replicas, read-out: koff) [s⁻¹] | koff (NMR line shape fit (TITAN), 298 K, pH 7.0, grid search, read-out: koff 95% confidence limits) [s⁻¹] | koff (pH 7) [s⁻¹] | koff (pH 7, read-out: koff 95% confidence limits) [s⁻¹] |
| --- | --- | --- | --- | --- |
| C[C@H](N)C(=O)N[C@@H](CCCNC(=N)N)C(=O)N[C@H](C(=O)N[C@@H](CCCC[N+](C)(C)C)C(=O)N[C@@H](CCC(N)=O)C(=O)N[C@H](C(=O)N[C@@H](C)C(=O)N[C@@H](CCCNC(=N)N)C(=O)N[C@@H](CCCCN)C(=O)N[C@@H](CO)C(=O)N[C@H](C(=O)NCC(N)=O)[C@@H](C)O)[C@@H](C)O)[C@@H](C)O [H3K4me3] | 48.8 ± 1 | 42 to 56 |  |  |
| C[C@H](N)C(=O)N[C@@H](CCCNC(=N)N)C(=O)N[C@H](C(=O)N[C@@H](CCCC[N+](C)(C)C)C(=O)N[C@@H](CCC(=O)NCCc1c[nH]c2ccc(O)cc12)C(=O)N[C@H](C(=O)N[C@@H](C)C(=O)N[C@@H](CCCNC(=N)N)C(=O)N[C@@H](CCCCN)C(=O)N[C@@H](CO)C(=O)N[C@H](C(=O)NCC(N)=O)[C@@H](C)O)[C@@H](C)O)[C@@H](C)O [H3K4me3Q5ser] |  |  | 16.8 ± 0.5 | 12 to 22 |
